From PubChem BioAssay (NCI)
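Following 48 hours of exposure in 96-well plates, responses at five concentrations were used to interpolate endpoints linearly. The concentration for full growth arrest is given as TGI.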

Legend:
Experiment in all cases: NCI tumour cell line growth inhibition, 48 h
[1] = tested on: SNB-19 CNS
[2] = tested on: A498 renal
[3] = tested on: NCI-H23 lung
[4] = tested on: OVCAR-3 ovarian
[5] = tested on: MDA-MB-231 breast
[6] = tested on: EKVX NSCLC
[7] = tested on: HCT-116 colon
[8] = tested on: A549 NSCLC
[9] = tested on: SK-MEL-28 melanoma
[10] = tested on: HS 578T breast
[11] = tested on: OVCAR-8 ovarian
[12] = tested on: COLO 205 colon
[13] = tested on: CCRF-CEM leukemia
[14] = tested on: UACC-62 melanoma
[15] = tested on: LOX IMVI melanoma
[16] = tested on: HL-60(TB) leukemia
[17] = tested on: HT29 colon
[18] = tested on: PC-3 prostate
[19] = tested on: MDA-MB-435
[20] = tested on: RPMI-8226 leukemia
[21] = tested on: MCF7 breast
[22] = tested on: SK-MEL-2 melanoma
[23] = tested on: HCC-2998 colon
[24] = tested on: UO-31 renal
[25] = tested on: MDA-N
[26] = tested on: MOLT-4 leukemia
[27] = tested on: SK-MEL-5 melanoma
[28] = tested on: K-562 leukemia
[29] = tested on: NCI-H522 lung
[30] = tested on: OVCAR-5 ovarian
[31] = tested on: UACC-257 melanoma
[32] = tested on: NCI-H460 lung
[33] = tested on: SK-OV-3 ovarian
[34] = tested on: BT-549 breast
[35] = tested on: SW-620 colon
[36] = tested on: TK-10 renal
[37] = tested on: 786-0 renal
[38] = tested on: KM12 colon
[39] = tested on: OVCAR-4 ovarian
[40] = tested on: NCI/ADR-RES ovarian
[41] = tested on: CAKI-1 renal
[42] = tested on: MALME-3M melanoma
[43] = tested on: T-47D breast
[44] = tested on: RXF 393 renal
[45] = tested on: DU-145 prostate
[46] = tested on: SR leukemia
[47] = tested on: NCI-H226 lung
[48] = tested on: SN12C renal
[49] = tested on: HCT-15 colon
[50] = tested on: M14 melanoma
[51] = tested on: U251 CNS
[52] = tested on: SNB-75 CNS
[53] = tested on: SF-539 CNS
[54] = tested on: SF-268 CNS

Measured: TGI

O=c1[nH][nH]c(=O)n1Cc1cccc(Cn2c(=O)[nH][nH]c2=O)c1
> 100 µM: [1] | [2] | [3] | [4] | [5] | [6] | [7] | [8] | [9] | [10] | [11] | [12] | [13] | [14] | [15] | [16] | [17] | [18] | [19] | [20] | [21] | [22] | [23] | [24] | [25] | [26] | [27] | [28] | [29] | [30] | [31] | [32] | [33] | [34] | [35] | [36] | [37] | [38] | [39] | [40] | [41] | [42] | [43] | [44] | [45] | [46] | [47] | [48] | [49] | [50] | [51] | [52] | [53] | [54]
